Structures can show the parent of a compound that is named as a salt.
Test system: healthy adult subjects
Test: Example 11 ECG (QT/QTc) crossover study
Settings: QT/QTc Population
Description: This was a single-dose, partially blinded, randomized, four-period, four-treatment, crossover study in which 24 healthy adult subjects received separate single doses of cocaine topical solution (8%), cocaine topical solution (4%), placebo, and moxifloxacin HCl tablet (400 mg) in four study periods. Each subject received a different treatment in each study period. Subjects received each of the following treatments in randomized fashion during the four treatment periods: (1) Treatment A: Cocaine hydrochloride, USP, topical solution, 8%; Dose=320 mg (80 mg/mL×4 mL); (2) Treatment B: Cocaine hydrochloride, USP, topical solution, 4%; Dose=160 mg (40 mg/mL×4 mL); (3) Treatment C: Placebo; and (4) Treatment D: AVELOX® (moxifloxacin hydrochloride); Dose=400 mg (1×400 mg tablet).
Treatments A, B, and C were blinded, while Treatment D was open label. Each drug administration was separated by a washout period of at least 4 days. […] Moxifloxacin HCl was orally administered along with approximately 240 mL (8 fl oz) of room temperature water.
A 25-hour continuous 12-lead ECG recording was performed on Day 1, starting 1 hour before dosing. At the designated time points, up to 10 replicate ECGs were extracted and intervals were measured using the High Precision QT technique. […] During protocol-specified ECG extraction windows, 10-second digital 12-lead ECG tracings were extracted from continuous recordings (preceded by a 10-minute supine rest period) at the following time points: predose (3 time points) and 20 minutes (end of cocaine dose; immediately after pledget removal), 40 minutes, and at 1, 1.25, 1.5, 2, 2.5, 3, 4, 6, 8, 12, and 24 hours after pledget insertion/moxifloxacin dosing.
The primary ECG endpoint was ΔQTcF. ΔQTcF is the QTc corrected for heart rate by the Fridericia method. The term “QTc”, as used herein, refers to the duration of the QT interval adjusted for the patient's heart rate.
The secondary ECG endpoints were: change-from-baseline heart rate (“HR”), time from beginning of the P-wave to the beginning of the next QRS complex (“PR”), deflections in the tracing of the electrocardiogram comprising the Q, R, and S waves that represent depolarization of the ventricles (“QRS”), time elapsed between two consecutive R waves (“RR”), and measure of the time in the tracing of the electrocardiogram between the start of the Q-wave and the end of the T-wave (“QT”); and T-wave morphological changes.

## COc1c(N2C[C@@H]3CCCN[C@@H]3C2)c(F)cc2c(=O)c(C(=O)O)cn(C3CC3)c12 [moxifloxacin HCl, moxifloxacin hydrochloride]
400 mg
  T-wave morphology treatment emergent changes: Flat, Subject count: 0
  T-wave morphology treatment emergent changes: Flat, Timepoint count: 0
  T-wave morphology treatment emergent changes: Normal (−), Subject count: 0
  T-wave morphology treatment emergent changes: Normal (−), Timepoint count: 0
  T-wave morphology treatment emergent changes: Notched (+), Subject count: 0
  T-wave morphology treatment emergent changes: Notched (+), Timepoint count: 0
  T-wave morphology treatment emergent changes: Notched (−), Subject count: 0
  T-wave morphology treatment emergent changes: Notched (−), Timepoint count: 0
400 mg, […] post-dose
  ΔPR, change-from-baseline PR, LSMean: -0.8 ms
  ΔQRS, change-from-baseline QRS, LSMean: -0.3 ms
  ΔQT, change-from-baseline QT, LSMean: 6.1 ms
  ΔRR, change-from-baseline RR, LSMean: -37.0 ms
  ΔΔPR, placebo-corrected change-from-baseline PR, LSMean: 0.5 ms
20 min post-dose
  ΔHR (change-from-baseline HR), LSMean: 1.0 bpm
  ΔQTcF (change-from-baseline QTcF), LSMean: -3.1 ms
  ΔΔHR (placebo-corrected change-from-baseline HR), LSMean: −4.4 bpm
  ΔΔQTcF (placebo-corrected change-from-baseline QTcF), LSMean: -0.1 ms
40 min post-dose
  ΔHR (change-from-baseline HR), LSMean: 1.3 bpm
  ΔQTcF (change-from-baseline QTcF), LSMean: 4.4 ms
  ΔΔHR (placebo-corrected change-from-baseline HR), LSMean: 0.4 bpm
  ΔΔQTcF (placebo-corrected change-from-baseline QTcF), LSMean: 5.4 ms
1 hour post-dose
  ΔHR (change-from-baseline HR), LSMean: 1.8 bpm
  ΔQTcF (change-from-baseline QTcF), LSMean: 7.4 ms
  ΔΔHR (placebo-corrected change-from-baseline HR), LSMean: 1.7 bpm
  ΔΔQTcF (placebo-corrected change-from-baseline QTcF), LSMean: 7.8 ms
1.25 hour post-dose
  ΔHR (change-from-baseline HR), LSMean: 2.6 bpm
  ΔQTcF (change-from-baseline QTcF), LSMean: 9.1 ms
  ΔΔHR (placebo-corrected change-from-baseline HR), LSMean: 2.7 bpm
  ΔΔQTcF (placebo-corrected change-from-baseline QTcF), LSMean: 8.7 ms
1.5 hour post-dose
  ΔHR (change-from-baseline HR), LSMean: 3.9 bpm
  ΔQTcF (change-from-baseline QTcF), LSMean: 8.4 ms
  ΔΔHR (placebo-corrected change-from-baseline HR), LSMean: 3.8 bpm
  ΔΔQTcF (placebo-corrected change-from-baseline QTcF), LSMean: 7.9 ms
2 hours post-dose
  ΔHR (change-from-baseline HR), LSMean: 2.3 bpm
  ΔQTcF (change-from-baseline QTcF), LSMean: 9.0 ms
  ΔΔHR (placebo-corrected change-from-baseline HR), LSMean: 3.1 bpm
  ΔΔQTcF (placebo-corrected change-from-baseline QTcF), LSMean: 8.9 ms
3 hours post-dose
  ΔHR (change-from-baseline HR), LSMean: 2.6 bpm
  ΔQTcF (change-from-baseline QTcF), LSMean: 13.2 ms
  ΔΔHR (placebo-corrected change-from-baseline HR), LSMean: 2.5 bpm
  ΔΔQTcF (placebo-corrected change-from-baseline QTcF), LSMean: 13.0 ms
4 hours post-dose
  ΔHR (change-from-baseline HR), LSMean: 3.4 bpm
  ΔQTcF (change-from-baseline QTcF), LSMean: 14.4 ms
  ΔΔHR (placebo-corrected change-from-baseline HR), LSMean: 1.6 bpm
  ΔΔQTcF (placebo-corrected change-from-baseline QTcF), LSMean: 15.2 ms
6 hours post-dose
  ΔHR (change-from-baseline HR), LSMean: 8.2 bpm
  ΔQTcF (change-from-baseline QTcF), LSMean: 7.2 ms
  ΔΔHR (placebo-corrected change-from-baseline HR), LSMean: 2.5 bpm
  ΔΔQTcF (placebo-corrected change-from-baseline QTcF), LSMean: 10.9 ms
8 hours post-dose
  ΔHR (change-from-baseline HR), LSMean: 5.7 bpm
  ΔQTcF (change-from-baseline QTcF), LSMean: 4.4 ms
  ΔΔHR (placebo-corrected change-from-baseline HR), LSMean: 1.6 bpm
  ΔΔQTcF (placebo-corrected change-from-baseline QTcF), LSMean: 11.5 ms
12 hours post-dose
  ΔHR (change-from-baseline HR), LSMean: 10.7 bpm
  ΔQTcF (change-from-baseline QTcF), LSMean: 7.3 ms
  ΔΔHR (placebo-corrected change-from-baseline HR), LSMean: 1.5 bpm
  ΔΔQTcF (placebo-corrected change-from-baseline QTcF), LSMean: 9.6 ms
24 hours post-dose
  ΔHR (change-from-baseline HR), LSMean: 4.2 bpm
  ΔQTcF (change-from-baseline QTcF), LSMean: 2.4 ms
  ΔΔHR (placebo-corrected change-from-baseline HR), LSMean: −0.0 bpm
  ΔΔQTcF (placebo-corrected change-from-baseline QTcF), LSMean: 7.5 ms
[…] post-dose
  ΔHR (change-from-baseline HR), LSMean: 2.6 bpm
  ΔQTcF (change-from-baseline QTcF), LSMean: 11.5 ms
  ΔΔHR (placebo-corrected change-from-baseline HR), LSMean: 0.9 bpm
  ΔΔQTcF (placebo-corrected change-from-baseline QTcF), LSMean: 9.8 ms
